Data reported in article PMC9864251 (Viruses, 2022).

Tests used:
NoV = test system: NoV; parameters: method as in earlier work; conditions: cited from earlier work
[1] = parameters: method as in earlier work; conditions: cited from earlier work
HuNoV (GII.4) RdRp [2] = molecular target: T1, HuNoV (GII.4) RdRp (Norovirus GII.4 (Human norovirus, Norovirus norwalkense), UniProt P54634); experiment: Gel-based (gel-shift) RdRp primed elongation assay with PE44-NoV template; format: biochemical; conditions: compounds at fixed concentration of 100 μM
T1 sequence (P54634 1190-1699): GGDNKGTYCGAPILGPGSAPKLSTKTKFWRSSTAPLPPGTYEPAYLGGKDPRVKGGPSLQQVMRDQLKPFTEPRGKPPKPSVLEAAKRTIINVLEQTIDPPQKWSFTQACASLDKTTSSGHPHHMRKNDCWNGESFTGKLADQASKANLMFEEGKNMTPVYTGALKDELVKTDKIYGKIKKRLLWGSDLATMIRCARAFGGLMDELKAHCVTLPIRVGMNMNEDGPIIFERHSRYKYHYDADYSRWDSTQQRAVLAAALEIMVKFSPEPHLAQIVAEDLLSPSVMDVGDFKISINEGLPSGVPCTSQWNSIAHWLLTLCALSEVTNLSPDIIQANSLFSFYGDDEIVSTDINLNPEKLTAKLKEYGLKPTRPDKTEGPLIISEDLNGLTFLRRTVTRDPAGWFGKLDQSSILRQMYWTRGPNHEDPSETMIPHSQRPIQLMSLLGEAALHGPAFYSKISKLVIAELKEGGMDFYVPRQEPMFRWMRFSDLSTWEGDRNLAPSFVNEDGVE

HuNoV (GII.4) RdRp [3] = molecular target: T1, HuNoV (GII.4) RdRp; experiment: Quantitative fluorescent RdRp activity assay (PicoGreen, poly(C) template); format: biochemical; conditions: compounds at 20 μM in triplicate, normalized to DMSO control
MNVpol = test system: MNVpol; parameters: method as in earlier work; conditions: cited from earlier work
HuNoVpol = test system: HuNoVpol; parameters: method as in earlier work; conditions: cited from earlier work
RAW 264.7 cells = experiment: Cytotoxicity by the MTS method in uninfected RAW 264.7 cells; format: cell-based, mouse; conditions: 3 days, 0.6–100 μM range, mean ± SD, at least three independent experiments
HuNoV (GII.4) RdRp [4] = molecular target: T1, HuNoV (GII.4) RdRp; conditions: activity data as previously reported ref 18,19, read-out: In Vitro RdRp Activity Assay IC50; cited from earlier work
MNV = test system: MNV; parameters: method as in earlier work; conditions: cited from earlier work
[5] = test system: MNV (virus strain MNV-1.CW1); experiment: MNV antiviral MTS-based cytopathic effect; format: cell-based, murine norovirus; conditions: Norwalk virus, RAW264.7, 72 h, read-out: MNV EC50

## NC(=O)c1nc(F)c[nH]c1=O [Compound T-705, Favipiravir]
NoV
  EC50: 21 µM
[1]
  CC50: > 100 µM

## Cc1ccc(NC(=O)CSc2n[nH]c(-c3ccccc3O)n2)c(C)c1 [Compound 1]
HuNoV (GII.4) RdRp [2]
  Inhibition of RdRp primed elongation activity (gel-shift): partial inhibition

## O=C(N/N=C/c1ccc(O)cc1O)c1ccccc1OCc1ccccc1 [Compound 3a]
HuNoV (GII.4) RdRp [3]
  Inhibition of HuNoV RdRp activity at 20 μM: modest inhibition
HuNoV (GII.4) RdRp [2]
  Inhibition of RdRp primed elongation activity (gel-shift): did not show significant inhibition

## COc1ccc(N2C(=O)c3ccc(C(=O)O)cc3C2=O)cc1NC(=O)c1ccccc1 [Compound 2]
HuNoV (GII.4) RdRp [3]
  Inhibition of HuNoV RdRp activity at 20 μM: limited RdRp inhibition
HuNoV (GII.4) RdRp [2]
  Inhibition of RdRp primed elongation activity (gel-shift): partial inhibition

## Cc1ccc(NC(=O)C[S+]([O-])c2n[nH]c(-c3ccccc3O)n2)c(C)c1 (stereo not drawn) [Compound 1e]
HuNoV (GII.4) RdRp [3]
  Inhibition of HuNoV RdRp activity at 20 μM: loss of inhibitory activity

## Cc1ccc(C(=O)Nc2ccc(S(=O)(=O)O)c3cc(S(=O)(=O)O)cc(S(=O)(=O)O)c23)cc1NC(=O)c1cccc(NC(=O)Nc2cccc(C(=O)Nc3cc(C(=O)Nc4ccc(S(=O)(=O)O)c5cc(S(=O)(=O)O)cc(S(=O)(=O)O)c45)ccc3C)c2)c1 [Suramin]
MNVpol
  IC50: 0.07 µM
HuNoVpol
  IC50: 0.025 µM

## O=C(Nc1cccc(N2C(=O)c3ccccc3C2=O)c1)c1ccccc1 [Compound 2e]
HuNoV (GII.4) RdRp [3]
  Inhibition of HuNoV RdRp activity at 20 μM: loss of inhibitory activity

## NC(=O)c1ncn([C@@H]2O[C@H](CO)[C@@H](O)[C@H]2O)n1 [Ribavirin]
NoV
  EC50: 43 µM
[1]
  CC50: > 100 µM

## C[C@@]1(O)[C@H](O)[C@@H](CO)O[C@H]1n1ccc(N)nc1=O [Compound 2-CMC, 2′-C-methylcytidine]
NoV
  EC50: 8.2 µM
[1]
  CC50: > 100 µM

## Cc1ccc(NC(=O)CSc2n[nH]c(-c3ccccc3O)n2)cc1 [Compound 1b]
HuNoV (GII.4) RdRp [2]
  Inhibition of RdRp primed elongation activity (gel-shift): partial inhibition

## Cc1cc(C(=O)O)ccc1-c1ccc(/C=C2\SC(=O)N(CC(=O)N3CCOCC3)C2=O)o1 [Compound 4]
RAW 264.7 cells
  MNV CC50: did not display any cytotoxicity
HuNoV (GII.4) RdRp [4]
  IC50: 15 µM

## O=C1NN(c2ccc(O)cc2)C(=O)/C1=C/c1ccc(-c2ccc(S(=O)(=O)Nc3ccccc3)cc2)o1 [Compound 5a]
HuNoV (GII.4) RdRp [2]
  Inhibition of RdRp primed elongation activity (gel-shift): nearly complete inhibition
RAW 264.7 cells
  MNV CC50: CC50 value in the low micromolar range

## O=C(CN1C(=O)S/C(=C\c2ccc(-c3ccc(OP(=O)(O)O)cc3)o2)C1=O)N1CCOCC1 [Compound 4c]
HuNoV (GII.4) RdRp [2]
  Inhibition of RdRp primed elongation activity (gel-shift): partial inhibition

## O=C(CN1C(=O)S/C(=C\c2ccc(-c3ccc(O)cc3)o2)C1=O)N1CCOCC1 [Compound 4b]
HuNoV (GII.4) RdRp [2]
  Inhibition of RdRp primed elongation activity (gel-shift): significant but partial inhibition
RAW 264.7 cells
  MNV CC50: cytotoxic effect in the micromolar range

## O=C(N/N=C/c1ccc(OCc2ccccc2)cc1O)c1ccccc1O [Compound 3b]
HuNoV (GII.4) RdRp [3]
  Inhibition of HuNoV RdRp activity at 20 μM: modest inhibition
HuNoV (GII.4) RdRp [2]
  Inhibition of RdRp primed elongation activity (gel-shift): did not show significant inhibition

## Cc1cc(O)ccc1-c1ccc(/C=C2\SC(=O)N(CC(=O)N3CCOCC3)C2=O)o1 [Compound 4a]
HuNoV (GII.4) RdRp [3]
  Inhibition of HuNoV RdRp activity at 20 μM: modest inhibition

## Cc1nc(-c2ccccc2)sc1C(=O)Nc1sc2c(c1C#N)CCC2 [NIC02]
MNV
  EC50: 4.8 µM
HuNoVpol
  IC50: 5 µM

## Cc1ccc(NC(=O)CS(=O)(=O)c2n[nH]c(-c3ccccc3O)n2)c(C)c1 [Compound 1f]
HuNoV (GII.4) RdRp [2]
  Inhibition of RdRp primed elongation activity (gel-shift): partial inhibition
RAW 264.7 cells
  MNV CC50: not associated with any cytotoxicity

## O=C1NN(c2ccccc2)C(=O)/C1=C/c1ccc(-c2ccc(S(=O)(=O)Nc3ccccc3)cc2)o1 [Compound 5]
[5]
  EC50: > 100 µM
HuNoV (GII.4) RdRp [2]
  Inhibition of RdRp primed elongation activity (gel-shift): completely abolish
HuNoV (GII.4) RdRp [4]
  IC50: 5.6 µM

## Cc1nc(/N=N/c2cc(S(=O)(=O)O)c3cc([N+](=O)[O-])cc(S(=O)(=O)O)c3c2)c(COP(=O)(O)O)c(C=O)c1O [PPNDS, reference compound]
HuNoV (GII.4) RdRp [2]
  Inhibition of RdRp primed elongation activity (gel-shift): complete inhibition
HuNoVpol
  IC50: 0.45 µM
HuNoV (GII.4) RdRp [4]
  IC50: 1.5 ± 0.25 µM
